Data reported in ChEMBL document CHEMBL5131391, “One-pot three-component synthesis of novel pyrazolo[3,4-b]pyridines as potent antileukemic agents” (Eur J Med Chem, 2022).

How the values were obtained:
Assay type in all cases: functional
HCC 2998 = assay: Antiproliferative activity against human HCC 2998 cells assessed as growth inhibition measured after 48 hrs by NCI protocol based SRB assay
K562 [1] = assay: Cytostatic activity in human K562 cells assessed as tumor growth inhibition measured after 48 hrs by NCI protocol based SRB assay
OVCAR-4 = assay: Cytostatic activity in human OVCAR-4 cells assessed as tumor growth inhibition measured after 48 hrs by NCI protocol based SRB assay
SK-MEL-28 = assay: Cytostatic activity in human SK-MEL-28 cells assessed as tumor growth inhibition measured after 48 hrs by NCI protocol based SRB assay
A498 = assay: Antiproliferative activity against human A498 cells assessed as growth inhibition measured after 48 hrs by NCI protocol based SRB assay
LOX IMVI = assay: Antiproliferative activity against human LOX IMVI cells assessed as growth inhibition measured after 48 hrs by NCI protocol based SRB assay
RPMI-8226 [2] = assay: Antiproliferative activity against human RPMI-8226 cells assessed as growth inhibition measured after 48 hrs by NCI protocol based SRB assay
U-251 = assay: Antiproliferative activity against human U-251 cells assessed as growth inhibition measured after 48 hrs by NCI protocol based SRB assay
KM12 = assay: Antiproliferative activity against human KM12 cells assessed as growth inhibition measured after 48 hrs by NCI protocol based SRB assay
MOLT-4 = assay: Antiproliferative activity against human MOLT-4 cells assessed as growth inhibition measured after 48 hrs by NCI protocol based SRB assay
RPMI-8226 [3] = assay: Cytostatic activity in human RPMI-8226 cells assessed as tumor growth inhibition measured after 48 hrs by NCI protocol based SRB assay
IGROV-1 = assay: Antiproliferative activity against human IGROV-1 cells assessed as growth inhibition measured after 48 hrs by NCI protocol based SRB assay
MCF7 [4] = assay: Antiproliferative activity against human MCF7 cells assessed as growth inhibition measured after 48 hrs by NCI protocol based SRB assay
HCT-116 [5] = assay: Antiproliferative activity against human HCT-116 cells assessed as growth inhibition measured after 48 hrs by NCI protocol based SRB assay
NCI-H460 = assay: Antiproliferative activity against human NCI-H460 cells assessed as growth inhibition measured after 48 hrs by NCI protocol based SRB assay
OVCAR-8 = assay: Cytostatic activity in human OVCAR-8 cells assessed as tumor growth inhibition measured after 48 hrs by NCI protocol based SRB assay
T47D = assay: Antiproliferative activity against human T47D cells assessed as growth inhibition measured after 48 hrs by NCI protocol based SRB assay
MCF7 [6] = assay: Cytostatic activity in human MCF7 cells assessed as tumor growth inhibition measured after 48 hrs by NCI protocol based SRB assay
CAKI-1 = assay: Cytostatic activity in human CAKI-1 cells assessed as tumor growth inhibition measured after 48 hrs by NCI protocol based SRB assay
BT-549 = assay: Cytostatic activity in human BT-549 cells assessed as tumor growth inhibition measured after 48 hrs by NCI protocol based SRB assay
MDA-MB-231 = assay: Antiproliferative activity against human MDA-MB-231 cells assessed as growth inhibition measured after 48 hrs by NCI protocol based SRB assay
TK-10 = assay: Antiproliferative activity against human TK-10 cells assessed as growth inhibition measured after 48 hrs by NCI protocol based SRB assay
CCRF-CEM = assay: Cytostatic activity in human CCRF-CEM cells assessed as tumor growth inhibition measured after 48 hrs by NCI protocol based SRB assay
SK-MEL-2 = assay: Cytostatic activity in human SK-MEL-2 cells assessed as tumor growth inhibition measured after 48 hrs by NCI protocol based SRB assay
MDA-MB-468 = assay: Antiproliferative activity against human MDA-MB-468 cells assessed as growth inhibition measured after 48 hrs by NCI protocol based SRB assay
DU-145 = assay: Cytostatic activity in human DU-145 cells assessed as tumor growth inhibition measured after 48 hrs by NCI protocol based SRB assay
786-0 = assay: Cytostatic activity in human 786-0 cells assessed as tumor growth inhibition measured after 48 hrs by NCI protocol based SRB assay
SW-620 = assay: Cytostatic activity in human SW-620 cells assessed as tumor growth inhibition measured after 48 hrs by NCI protocol based SRB assay
HOP-62 [7] = assay: Cytostatic activity in human HOP-62 cells assessed as tumor growth inhibition measured after 48 hrs by NCI protocol based SRB assay
HOP-62 [8] = assay: Antiproliferative activity against human HOP-62 cells assessed as growth inhibition measured after 48 hrs by NCI protocol based SRB assay
HCT-116 [9] = assay: Cytostatic activity in human HCT-116 cells assessed as tumor growth inhibition measured after 48 hrs by NCI protocol based SRB assay
SF-539 = assay: Antiproliferative activity against human SF-539 cells assessed as growth inhibition measured after 48 hrs by NCI protocol based SRB assay
SF-295 = assay: Antiproliferative activity against human SF-295 cells assessed as growth inhibition measured after 48 hrs by NCI protocol based SRB assay
K562 [10] = assay: Antiproliferative activity against human K562 cells assessed as growth inhibition measured after 48 hrs by NCI protocol based SRB assay
HT-29 = assay: Antiproliferative activity against human HT-29 cells assessed as growth inhibition measured after 48 hrs by NCI protocol based SRB assay
SN12C = assay: Cytostatic activity in human SN12C cells assessed as tumor growth inhibition measured after 48 hrs by NCI protocol based SRB assay
OVCAR-5 = assay: Cytostatic activity in human OVCAR-5 cells assessed as tumor growth inhibition measured after 48 hrs by NCI protocol based SRB assay
HCT-15 = assay: Cytostatic activity in human HCT-15 cells assessed as tumor growth inhibition measured after 48 hrs by NCI protocol based SRB assay
RS4-11 = assay: Induction of cell cycle arrest in human RS4-11 cells assessed as accumulation of cells in G2/M phase measured after 48 hrs by PI staining based flow cytometry analysis; conditions: dose 1.25-10 µM, DDE = dose-dependent effect
[11] = read-out: LC50 (the source's name)

N#Cc1c(-c2ccccc2)nc2c(c(-c3ccccc3)nn2-c2ccccc2)c1-c1ccc(O)cc1
GI50 (HCC 2998): 1.84 µM | CC50 (HCC 2998; [11]): 6.53 µM | TGI (K562 [1]): > 100 µM | TGI (OVCAR-4): 4.66 µM | TGI (SK-MEL-28): 3.05 µM | GI50 (A498): 1.66 µM | CC50 (A498; [11]): 5.69 µM | GI50 (LOX IMVI): 1.68 µM | CC50 (LOX IMVI; [11]): 5.55 µM | GI50 (RPMI-8226 [2]): 2.42 µM | CC50 (RPMI-8226 [2]; [11]): > 100 µM | GI50 (U-251): 1.63 µM | CC50 (U-251; [11]): 9.71 µM | GI50 (KM12): 2.02 µM | CC50 (KM12; [11]): 14.9 µM | GI50 (MOLT-4): 2.49 µM | CC50 (MOLT-4; [11]): > 100 µM | TGI (RPMI-8226 [3]): 17.9 µM | GI50 (IGROV-1): 1.8 µM | CC50 (IGROV-1; [11]): 7.28 µM | GI50 (MCF7 [4]): 1.86 µM | CC50 (MCF7 [4]; [11]): 90 µM | GI50 (HCT-116 [5]): 2.63 µM | CC50 (HCT-116 [5]; [11]): 83.4 µM | GI50 (NCI-H460): 1.73 µM | CC50 (NCI-H460; [11]): 6.13 µM | TGI (OVCAR-8): 11.7 µM | GI50 (T47D): 3.05 µM | CC50 (T47D; [11]): > 100 µM | TGI (MCF7 [6]): 4.76 µM | TGI (CAKI-1): 6.7 µM | TGI (BT-549): 4.45 µM | GI50 (MDA-MB-231): 1.7 µM | CC50 (MDA-MB-231; [11]): 6.44 µM | GI50 (TK-10): 2.89 µM | CC50 (TK-10; [11]): > 100 µM | TGI (CCRF-CEM): 13.4 µM | TGI (SK-MEL-2): 5.65 µM | GI50 (MDA-MB-468): 2.41 µM | CC50 (MDA-MB-468; [11]): 18.5 µM | TGI (DU-145): 8.53 µM | TGI (786-0): 5.35 µM | TGI (SW-620): 3.53 µM | TGI (HOP-62 [7]): 4.49 µM | GI50 (HOP-62 [8]): 2.12 µM | CC50 (HOP-62 [8]; [11]): 9.53 µM | TGI (HCT-116 [9]): 7.32 µM | GI50 (SF-539): 1.25 µM | CC50 (SF-539; [11]): 6.1 µM | GI50 (SF-295): 1.88 µM | CC50 (SF-295; [11]): 9.8 µM | GI50 (K562 [10]): 2.68 µM | CC50 (K562 [10]; [11]): > 100 µM | GI50 (HT-29): 2.51 µM | CC50 (HT-29; [11]): 54.7 µM | TGI (SN12C): 3.04 µM | TGI (OVCAR-5): 3.41 µM | TGI (HCT-15): 3.79 µM

Cc1ccc(-c2nc3c(c(-c4ccccc4)nn3-c3ccccc3)c(-c3ccc(O)cc3)c2C#N)cc1
Activity (RS4-11): Dde
